US5684026A, “Aminocyclopentane derivative” (priority 1994, dated 1997)
pIC50, pKi: −log10 of the molar value. Like-named read-outs stand apart in the source and are kept apart here.

Columns and labels:
Assay type in all cases: biochemical
[1] = biological target: T1, α-Glucosidase (Baker's yeast, EC 3.2.1.20) (Saccharomyces cerevisiae, UniProt P53341); test: α-Glucosidase enzyme inhibition assay (p-nitrophenyl α-D-glucopyranoside); details: for IC50: pH 6.8, 37° C., 30 minutes, read-out: IC50 (M) α-Glucosidase (Baker's yeast); for inhibitory activity against α-glucosidase (in words): compared with deoxynojirimycin, summary of Tables 1 and 2
T1 construct: purchased Sigma; host or cells: Baker's yeast
Protocol: (§1) By using a 96-well microplate, the absorbance (at 405 nm) of liberated p- or o-nitrophenol was measured with a microplate reader (MPR-4Ai, manufactured by Tosoh Corporation).
(§2) Incubation was carried out at 37° C. by using a natural incubator (Compact NIB-10, manufactured by Iwaki Glass Co., Ltd.).
(§3) The enzymes employed herein [α-glucosidase (Baker's yeast), β-glucosidase (Almonds), α-galactosidase (E. coli), β-galactosidase (E. coli) and β-galactosidase (Bovine Liver)] were all purchased from Sigma.
(§4) The substrates (p- or o-nitrophenylglycoside) of these enzymes were all purchased from Sigma.
1) α-Glucosidase (Baker's yeast, EC 3.2.1.20) [described in H. Halvorson and L. Ellias, Biochim. Biophys. Acta, 30, 28-40 (1958)]
Into each well were introduced an aqueous solution of a sample (1 μl), a 0.66 mM solution of p-nitrophenyl α-D-glucopyranoside in a buffer (98 μl) and a (0.4 mg/ml) enzyme solution in the buffer (1 μl) to give a total volume of 100 μl. After incubating at 37° C. for 30 minutes, the reaction was ceased by adding a 1M aqueous solution of sodium carbonate (100 μl). Then the absorbance (A405) of p-nitrophenol liberated by this enzyme reaction was measured. To give the blank absorbance (Ablank), the sample (1 μl) and the substrate (99 μl) were incubated in the same manner and an aqueous solution of sodium carbonate (100 μl) was added followed by the measurement of the absorbance. […] The sample at each concentration, the blank and the control were treated each in two wells at the same time. As the buffer, a 0.1M phosphate buffer solution (pH 6.8, prepared from KH2 PO4 and K2 HPO4) was employed.

[2] = biological target: β-Glucosidase (Almonds, EC 3.2.1.21); test: β-Glucosidase enzyme inhibition assay (p-nitrophenyl β-D-glucopyranoside); details: for IC50: pH 5.0, 37° C., 45 minutes
Protocol: as §1, §2, §3, §4
2) β-Glucosidase (Almonds, EC 3.2.1.21) [described in A. Kobayashi, Agr. Biol. Chem., 26, 203-207 (1962)]
Into each well were introduced an aqueous solution of a sample (1 μl), a 0.33 mM solution of p-nitrophenyl β-D-glucopyranoside in a buffer (98 μl) and a (0.4 mg/ml) enzyme solution in the buffer (1 μl) to give a total volume of 100 μl. After incubating at 37° C. for 45 minutes, the reaction was ceased by adding a 1M aqueous solution of sodium carbonate (100 μl). Then the absorbance (A405) of p-nitrophenol liberated by this enzyme reaction was measured. To give the blank absorbance (Ablank), the sample (1 μl) and the substrate (99 μl) were incubated in the same manner and an aqueous solution of sodium carbonate (100 μl) was added followed by the measurement of the absorbance. […] As the buffer, a 0.1M acetate buffer solution (pH 5.0, prepared from NaOAc and AcOH) was employed. The IC50 was determined in the same manner as employed in the case of α-glucosidase.

[3] = system: α-Galactosidase (E. Coli, EC. 3.2.1.22); test: α-Galactosidase enzyme inhibition assay (p-nitrophenyl α-D-galactopyranoside); details: pH 6.5, room temperature, 15 minutes
Protocol: as §1, §3, §4
3) α-Galactosidase (E. Coli, EC. 3.2.1.22) [described in H. Suzuki, S-C. Li and Y-T. Li, J. Biol. Chem., 245, 781-786 (1970)]
Into each well were introduced an aqueous solution of a sample (1 μl), a buffer (74 μl), a 9.9 mM solution of p-nitrophenyl α-D-galactopyranoside in a buffer (20 μl) and a (50 μg/ml) enzyme solution in the buffer (5 μl) to give a total volume of 100 μl. After incubating the resulting mixture at room temperature (20°-30° C.) for 15 minutes, the reaction was ceased by adding a 0.2M borate buffer solution (pH 9.8, prepared from NaOH and H3 BO3, 100 μl). Then the absorbance (A405) of p-nitrophenol liberated by this enzyme reaction was measured. To give the blank absorbance (Ablank), the sample (1 μl), the substrate (20 μl) and the buffer solution (79 μl) were incubated in the same manner and the 0.2M borate buffer solution (100 μl) was added followed by the measurement of the absorbance. To give the control absorbance ([…]), on the other hand, water (1 μl), the substrate (20 μl), the buffer solution (74 μl) and the enzyme solution (5 μl) were incubated in the same manner and the borate buffer solution (100 μl) was added followed by the measurement of the absorbance. A 0.1M phosphate buffer solution (pH 6.5, prepared from KH2 PO4 and K2 HPO4) was employed as the buffer for the enzyme reaction. The IC50 was determined in the same manner as employed in the case of α-glucosidase.

[4] = biological target: T2, β-Galactosidase (E. Coli, EC. 3.2.1.23) (Escherichia coli, UniProt P00722); test: β-Galactosidase (E. coli) enzyme inhibition assay (o-nitrophenyl β-D-galactopyranoside)
T2 construct: purchased Sigma; host or cells: E. coli
Protocol: as §1, §3, §4
4) β-Galactosidase (E. Coli, EC. 3.2.1.23) [described in G. R. Craven, E. Steers, Jr. and C. B. Anfinsen, J. Biol. Chem., 240, 2468-2477 (1965)]
Into each well were introduced an aqueous solution of a sample (2 μl), a buffer (153 μl), a 20 mM solution of o-nitrophenyl β-D-galactopyranoside in a buffer (25 μl), a 100 mM 2-mercaptoethanol (10 μl) and a (10 μg/ml) enzyme solution in the buffer (10 μl) to give a total volume of 200 μl. After incubating at room temperature (20°-30° C.) for 30 minutes, the absorbance (A405) of o-nitrophenol liberated by this enzyme reaction was measured. To give the blank absorbance (Ablank), the sample (2 μl), the substrate (25 μl), the buffer solution (163 μl) and 2-mercaptoethanol (10 μl) were incubated in the same manner followed by the measurement of the absorbance. To give the control absorbance (Acontrol), on the other hand, water (2 μl), the substrate (25 μl), the buffer solution (153 μl), 2-mercaptoethanol (10 μl) and the enzyme solution (10 μl) were incubated in the same manner followed by the measurement of the absorbance. A 50 mM phosphate buffer solution (pH 7.3, prepared from KH2 PO4 and K2 HPO4, containing 1.3 mM of MgCl2) was employed as the buffer for the enzyme reaction. The IC50 was determined in the same manner as employed in the case of α-glucosidase.

[5] = biological target: T3, α-glucosidase I (Baker's yeast) (Saccharomyces cerevisiae, UniProt P53008); test: Inhibitory activity on α-glucosidase I (Ki)
T3 construct: made in house; host or cells: Baker's yeast (native enzyme, prepared by the cited method)
T3 sequence (P53008 25-833 limits assumed): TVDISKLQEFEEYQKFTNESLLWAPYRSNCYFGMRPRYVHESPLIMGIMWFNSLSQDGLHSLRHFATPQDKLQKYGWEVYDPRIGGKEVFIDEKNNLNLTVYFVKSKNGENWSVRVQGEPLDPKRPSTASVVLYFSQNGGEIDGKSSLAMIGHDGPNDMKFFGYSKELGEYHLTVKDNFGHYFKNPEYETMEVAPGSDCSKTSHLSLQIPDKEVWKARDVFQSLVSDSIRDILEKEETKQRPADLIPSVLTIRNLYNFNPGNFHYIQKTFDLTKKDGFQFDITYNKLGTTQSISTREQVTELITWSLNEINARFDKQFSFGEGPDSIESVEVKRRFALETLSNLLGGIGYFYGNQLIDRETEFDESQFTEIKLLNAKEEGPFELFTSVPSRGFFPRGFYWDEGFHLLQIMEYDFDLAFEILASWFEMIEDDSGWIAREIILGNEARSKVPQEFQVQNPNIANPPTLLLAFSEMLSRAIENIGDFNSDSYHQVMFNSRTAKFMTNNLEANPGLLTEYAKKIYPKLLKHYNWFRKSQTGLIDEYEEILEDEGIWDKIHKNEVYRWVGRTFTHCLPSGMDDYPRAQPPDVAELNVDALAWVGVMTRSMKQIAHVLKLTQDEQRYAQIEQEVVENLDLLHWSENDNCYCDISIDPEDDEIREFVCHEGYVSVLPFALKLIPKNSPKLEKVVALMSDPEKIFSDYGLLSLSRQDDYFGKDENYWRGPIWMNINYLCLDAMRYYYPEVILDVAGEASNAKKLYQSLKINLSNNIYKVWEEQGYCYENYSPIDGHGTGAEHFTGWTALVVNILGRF
Protocol: The α-glucosidase I (Baker's yeast) and its substrate (α-D-Glcl→2α-D-Glcl→3α-D-Glc-O(CH2)6 COOCH3) employed herein were prepared in accordance with the method of I. Neverova et al., Anal. Biochem., 222, 190-196 (1994).
The following measurements were performed by the methods described in this literature.
Namely, 25 μl of a buffer solution containing α-glucosidase I was added to a microtube containing the above-mentioned sample and the substrate (α-D-Glcl→2α-D-Glcl→3α-D-Glc-O(CH2)6 COOCH3). After incubating at 37° C. for 1 hour, a 1.25M tris hydrochloride buffer solution (pH 7.6, 25 μl) was added to thereby cease .the reaction. Then the reaction mixture was transferred onto a microplate followed by the addition of 250 μl of a reaction buffer solution [developing solution; 1M tris hydrochloride buffer solution (pH 7.2) containing glucose oxidase (5 units/ml, manufactured by Sigma), horseradish peroxidase (1 purpurogallin units, manufactured by Sigma) and o-dianisidine dihydrochloride (40 μg/ml)]. Then the mixture was incubated at 37° C. for 30 minutes or until an increase in the absorbance attained a plateau. Then the absorbance (A450-650) of the o-dianisidine formed and oxidized by this enzyme reaction was measured. As a blank, the above reaction was repeated but adding neither the above-mentioned sample nor substrate and the absorbance was measured. Also, the above-mentioned reaction buffer solution was added to D-glucose of a known concentration and the resulting mixture was incubated followed by the measurement of the absorbance to thereby examine a relationship between D-glucose concentration and absorbance. Each measurement was effected in two wells at the same time.
Based on the above-mentioned relationship between D-glucose concentration and absorbance, the amount of glucose liberated from the substrate due to the enzyme reaction of α-glucosidase I in the presence of the sample was determined. From the result thus obtained, Km was determined and then Ki was determined from the sample amount and the Km value.

[6] = α-glucosidase I, substrate 0.25-4.0 mM, 37° C., 1 hour, read-out: Ki

T1 sequence (P53341 whole entry): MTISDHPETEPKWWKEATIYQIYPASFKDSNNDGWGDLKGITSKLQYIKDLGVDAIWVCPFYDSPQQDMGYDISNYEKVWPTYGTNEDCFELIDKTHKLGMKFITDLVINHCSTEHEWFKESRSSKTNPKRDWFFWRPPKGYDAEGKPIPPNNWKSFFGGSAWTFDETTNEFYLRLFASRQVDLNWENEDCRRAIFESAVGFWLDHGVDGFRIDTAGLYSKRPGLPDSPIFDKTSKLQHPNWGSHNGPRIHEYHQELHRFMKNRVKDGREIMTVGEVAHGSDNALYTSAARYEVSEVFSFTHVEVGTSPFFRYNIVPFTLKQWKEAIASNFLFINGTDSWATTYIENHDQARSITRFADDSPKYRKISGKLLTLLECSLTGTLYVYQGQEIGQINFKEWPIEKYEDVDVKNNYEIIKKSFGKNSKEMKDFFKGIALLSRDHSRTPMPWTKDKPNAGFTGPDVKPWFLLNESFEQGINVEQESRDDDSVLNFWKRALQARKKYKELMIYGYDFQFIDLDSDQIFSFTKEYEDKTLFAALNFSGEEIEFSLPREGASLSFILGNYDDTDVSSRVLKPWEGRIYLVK
T2 sequence (P00722 2-1024 limits assumed): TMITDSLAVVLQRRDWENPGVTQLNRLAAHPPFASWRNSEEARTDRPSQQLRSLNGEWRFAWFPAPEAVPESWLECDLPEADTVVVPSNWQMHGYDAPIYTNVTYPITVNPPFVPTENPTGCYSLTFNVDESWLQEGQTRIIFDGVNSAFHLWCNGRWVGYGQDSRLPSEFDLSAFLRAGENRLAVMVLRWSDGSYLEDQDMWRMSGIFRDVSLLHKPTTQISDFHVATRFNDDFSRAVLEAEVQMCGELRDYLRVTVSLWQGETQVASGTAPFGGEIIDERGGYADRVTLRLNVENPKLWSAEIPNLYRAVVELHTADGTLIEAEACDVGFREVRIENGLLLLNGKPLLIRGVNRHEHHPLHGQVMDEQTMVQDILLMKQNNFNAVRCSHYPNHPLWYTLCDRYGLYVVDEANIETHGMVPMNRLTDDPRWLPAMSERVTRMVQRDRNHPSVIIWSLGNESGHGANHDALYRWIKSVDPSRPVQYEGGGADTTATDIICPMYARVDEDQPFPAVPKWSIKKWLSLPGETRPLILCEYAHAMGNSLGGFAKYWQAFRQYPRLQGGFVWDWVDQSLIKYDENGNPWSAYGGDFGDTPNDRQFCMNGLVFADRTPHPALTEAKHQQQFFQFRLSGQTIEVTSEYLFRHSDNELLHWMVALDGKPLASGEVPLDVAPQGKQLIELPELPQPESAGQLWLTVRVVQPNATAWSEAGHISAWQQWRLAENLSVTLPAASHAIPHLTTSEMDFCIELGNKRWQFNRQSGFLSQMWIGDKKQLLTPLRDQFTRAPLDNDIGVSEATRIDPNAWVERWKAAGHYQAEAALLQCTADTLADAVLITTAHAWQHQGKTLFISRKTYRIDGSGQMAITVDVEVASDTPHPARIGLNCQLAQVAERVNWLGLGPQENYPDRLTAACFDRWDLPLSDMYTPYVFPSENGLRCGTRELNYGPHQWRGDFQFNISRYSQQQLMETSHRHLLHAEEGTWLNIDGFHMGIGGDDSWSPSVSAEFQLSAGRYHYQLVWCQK

| Compound | IC50 [1] [M] | IC50 [2] [µM] | inhibitory activity against α-glucosidase (in words) [1] | pKi [5, 6] | other results |
| --- | --- | --- | --- | --- | --- |
| OC[C@]12OC(Nc3ccccc3)=N[C@H]1[C@@H](O)[C@H](O)[C@H]2O [Compound 1-2D, (1R,5S,6R,7S,8R)-1-hydroxymethyl-3-phenylamino-2-oxa-4-azabicyclo[3.3.0]oct-3-ene-6,7,8-triol] | 9.99e-07 | > 300 |  |  | IC50 [3]: > 300 µM; pIC50 [4]: < 3.52 |
| CCCCNC1=N[C@@H]2[C@H](O)[C@@H](O)[C@H](O)[C@]2(CO)O1 [Compound 2-2L, (1S,5R,6S,7R,8S)-1-hydroxymethyl-3-butylamino-2-oxa-4-azabicyclo[3.3.0]oct-3-ene-6,7,8-triol] |  | > 300 | remarkably strong inhibitory activities | 5.38 | inhibitory activity against β-glucosidase (in words) ([2]; summary of Table 1): weak inhibitory activities |
| CCCCN1C[C@H](O)[C@@H](O)[C@H](O)[C@H]1CO [N-B-DNJ, N-butyldeoxynojirimycin, reference compound] |  |  |  |  | pIC50 [1]: 4.10; pKi [5]: 5.44 |
| N[C@@H]1[C@H](O)[C@@H](O)[C@H](O)[C@@]1(O)CO [d, 1L-(1,2,4,5/3)-5-amino-1C-hydroxymethyl-1,2,3,4-cyclopentanetetraol] |  |  | remarkably strong inhibitory activities | 3.52 | pIC50 [1]: 6.40; IC50 ([4]; pH 7.3, room temperature, 30 minutes, read-out: IC50 (M) β-Galactosidase (E. coli)): > 0.0003 M |
| CCCCN(CCCC)[C@@H]1[C@H](O)[C@@H](O)[C@H](O)[C@@]1(O)CO [d-1, 1L-(1,2,4,5/3)-5-dibutylamino-1-hydroxymethyl-1,2,3,4-cyclopentanetetraol] | 5e-07 | 130 | remarkably strong inhibitory activities |  |  |
| CCCCN[C@@H]1[C@H](O)[C@@H](O)[C@H](O)[C@@]1(O)CO [d-2, 1L-(1,2,4,5/3)-5-butylamino-1-hydroxymethyl-1,2,3,4-cyclopentanetetraol] | 1.7e-08 | 3 | remarkably strong inhibitory activities |  |  |
| trehasolamine [reference compound] | 0.0005 | 9.9 |  | 2.82 |  |
